Among the data in paper PMC12368481, “Discovery of a Phenylalanine‐Derived Natural Compound as a Potential Dual Inhibitor of MDM2 and MDMX” (Chemmedchem, 2025) are Kd values, retold here.

For the assay, the target named is T1, MDMX (Homo sapiens, UniProt O15151).
T1 construct: gene MDM4
T1 sequence (O15151 1-110 limits assumed): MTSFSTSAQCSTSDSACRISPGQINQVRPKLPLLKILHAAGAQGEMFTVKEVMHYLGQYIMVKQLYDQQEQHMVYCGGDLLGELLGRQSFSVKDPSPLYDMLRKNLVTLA
The assay is described as follows: SPR (Biacore T200), multicycle kinetics. It is filed as binding. The settings on record: read-out: MDMX / K D.

For the molecule `COC(CCCCCCC(C)C)C(=O)N[C@@H](Cc1ccccc1)C(=O)O` (stereo partly shown) [P5], the Kd amounted to 593 nM.
